In the supplement of paper PMC10883282:

Columns and labels:
Test in all cases: relative viability vs DMSO control (72 h) (fraction); higher = more viable cells
[1] = tested on: SYO-1
Outline: (§1)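 Relative viability is percent growth read by ATPLite and averaged over up to triplicate wells. Sarcoma cells were seeded in 384-well plates to reach 80–90% confluence and given 2.5 µl of serially diluted compound after 24 h, from source plates of 10 mM to 0.0002 mM. Incubation lasted 72 h at 37 °C, 5% CO2, with 0.1% DMSO vehicle and a 5 µM positive control, and the data were rescaled so 1 equals full and 0 equals none.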

[2] = tested on: SK-LMS-1
Outline: as §1

[3] = tested on: RD
Outline: as §1

[4] = tested on: HS729
Outline: as §1

[5] = tested on: SK-ES-1
Outline: as §1

[6] = tested on: A204
Outline: as §1

[7] = tested on: VA-ES-BJ
Outline: as §1

[8] = tested on: KHOS-NP
Outline: as §1

[9] = tested on: SW872
Outline: as §1

[10] = tested on: MES-SA
Outline: as §1

[11] = tested on: G401
Outline: as §1

[12] = tested on: SW684
Outline: as §1

NC(=O)c1cccc2cn(-c3ccc([C@@H]4CCCNC4)cc3)nc12 [Niraparib]
Conditions	relative viability
[1], 0.00017 µM	0.951
[1], 0.00051 µM	0.965
[1], 0.00152 µM	0.95
[1], 0.00457 µM	0.946
[1], 0.01372 µM	0.927
[1], 0.04115 µM	0.861
[1], 0.1235 µM	0.832
[1], 0.3704 µM	0.765
[1], 1.111 µM	0.664
[1], 3.333 µM	0.522
[1], 10 µM	0.29
[2], 0.00017 µM	1.08
[2], 0.00051 µM	1.12
[2], 0.00152 µM	1.1
[2], 0.00457 µM	1.12
[2], 0.01372 µM	1.12
[2], 0.04115 µM	1.13
[2], 0.1235 µM	1.12
[2], 0.3704 µM	1.1
[2], 1.111 µM	1.09
[2], 3.333 µM	1.03
[2], 10 µM	0.966
[3], 0.00017 µM	1.06
[3], 0.00051 µM	1.09
[3], 0.00152 µM	1.1
[3], 0.00457 µM	1.117
[3], 0.01372 µM	1.09
[3], 0.04115 µM	1.12
[3], 0.1235 µM	1.08
[3], 0.3704 µM	1.05
[3], 1.111 µM	1.006
[3], 3.333 µM	0.899
[3], 10 µM	0.784
[4], 0.00017 µM	0.876
[4], 0.00051 µM	0.894
[4], 0.00152 µM	0.893
[4], 0.00457 µM	0.89
[4], 0.01372 µM	0.886
[4], 0.04115 µM	0.869
[4], 0.1235 µM	0.917
[4], 0.3704 µM	0.868
[4], 1.111 µM	0.884
[4], 3.333 µM	0.877
[4], 10 µM	0.801
[5], 0.00017 µM	1.02
[5], 0.00051 µM	1.02
[5], 0.00152 µM	1.01
[5], 0.00457 µM	1.01
[5], 0.01372 µM	1.02
[5], 0.04115 µM	0.975
[5], 0.1235 µM	0.8976
[5], 0.3704 µM	0.822
[5], 1.111 µM	0.525
[5], 3.333 µM	0.311
[5], 10 µM	0.0804
[6], 0.00017 µM	1.07
[6], 0.00051 µM	1.09
[6], 0.00152 µM	1.05
[6], 0.00457 µM	1.07
[6], 0.01372 µM	1.05
[6], 0.04115 µM	1.07
[6], 0.1235 µM	1.064
[6], 0.3704 µM	0.998
[6], 1.111 µM	0.964
[6], 3.333 µM	0.885
[6], 10 µM	0.691
[7], 0.00017 µM	0.985
[7], 0.00051 µM	0.995
[7], 0.00152 µM	0.976
[7], 0.00457 µM	0.96
[7], 0.01372 µM	0.99
[7], 0.04115 µM	1.01
[7], 0.1235 µM	0.983
[7], 0.3704 µM	0.947
[7], 1.111 µM	0.915
[7], 3.333 µM	0.873
[7], 10 µM	0.708
[8], 0.00017 µM	1.05
[8], 0.00051 µM	1.04
[8], 0.00152 µM	1.04
[8], 0.00457 µM	1.06
[8], 0.01372 µM	1.045
[8], 0.04115 µM	1.04
[8], 0.1235 µM	1.06
[8], 0.3704 µM	1.08
[8], 1.111 µM	1.05
[8], 3.333 µM	1.079
[8], 10 µM	1.04
[9], 0.00017 µM	1.02
[9], 0.00051 µM	1.04
[9], 0.00152 µM	1.03
[9], 0.00457 µM	1.04
[9], 0.01372 µM	0.997
[9], 0.04115 µM	1.01
[9], 0.1235 µM	1.05
[9], 0.3704 µM	1.07
[9], 1.111 µM	1.06
[9], 3.333 µM	1.07
[9], 10 µM	1.02
[10], 0.00017 µM	0.9156
[10], 0.00051 µM	0.898
[10], 0.00152 µM	0.868
[10], 0.00457 µM	0.918
[10], 0.01372 µM	0.882
[10], 0.04115 µM	0.893
[10], 0.1235 µM	0.876
[10], 0.3704 µM	0.8654
[10], 1.111 µM	0.824
[10], 3.333 µM	0.774
[10], 10 µM	0.598
[11], 0.00017 µM	0.962
[11], 0.00051 µM	0.988
[11], 0.00152 µM	1.01
[11], 0.00457 µM	0.9908
[11], 0.01372 µM	0.993
[11], 0.04115 µM	1.03
[11], 0.1235 µM	0.967
[11], 0.3704 µM	0.97
[11], 1.111 µM	0.93
[11], 3.333 µM	0.929
[11], 10 µM	0.852
[12], 0.00017 µM	1.14
[12], 0.00051 µM	1.15
[12], 0.00152 µM	1.17
[12], 0.00457 µM	1.13
[12], 0.01372 µM	1.09
[12], 0.04115 µM	1.13
[12], 0.1235 µM	1.14
[12], 0.3704 µM	1.1
[12], 1.111 µM	1.13
[12], 3.333 µM	1.17
[12], 10 µM	1.09
